Experimental data: patent US20100286762A1, “Compositions and Methods for Ameliorating Clinical Electrical Disturbances” (MUSC Foundation for Research Development, priority 2009, published 2010)
Entries after “also recorded” stand apart in the source; their conditions may differ.

Tests used:
[1] = tested on: neonatal rat ventricular myocytes (NVRMs) monolayers and NCRFs; assay: Adherence of dispersed fibroblasts (NCRFs) to myocyte (NVRM) monolayers; assay type: cell-based; conditions: 48 hr timecourse
Description: (§1) FIGS. 4A-4F show ZO-1 regulation of differential adhesion between Cx43 expressing cells. A. Segregation of Cx43-GFP cells from DiI-labeled HeLa Cx43 cells. […] C and D. Cohesion patterns of orange-tagged NVRMs from green-tagged NCRFs following control (top) or ACT1ACT1 (bottom) incubation. […] Scale A=5 um, C, D=25 um.
(§2) In another approach neonatal rat ventricular myocytes (NVRMs) were cultured as monolayers and the propensity of added dispersed NCRFs to adhere to this layer was measured. […] In the second approach, green CellTracker-tagged fibroblasts are mixed with orange CellTracker-tagged myocytes and cultured as aggregates (FIG. 4C,D). […] Disclosed herein, and supported by the disclosed data, the regulation of connexon aggregation via ZO-1 PDZ2 can dynamically adjust the level of differential adhesivity between cells in heterocellular contacts (e.g., fibroblasts and myocytes).

cryoinjured mouse hearts [2] = assay: Arrhythmia induction (S2-S3 premature beat protocol, overdrive pacing) in Langendorff-perfused hearts one week after cryoinjury; assay type: in vivo
Description: Following cryoinjury by application of 3 mm liquid nitrogen chilled probe hearts in anesthetized mice were treated with a methycellulose patch containing either ˜9 ug of ACT1 peptide, ˜9 ug of reverse control peptide or no peptide (vehicle control). Mice were then allowed to recover for a week. A week following the injury, Langherdorf-perfused hearts from the mice were subject to 2 types of electrical stimulation inducing arrhythmia: a) S2-S3 premature beat protocol and b) Overdrive pacing. Electrical recordings were made and induced arrhythmic behaviors were categorized including delayed after depolarizations, ectopic beats, ventricular tachycardia, and ventricular fibrillation. […] Severity was graded according to the electrical abnormality noted (e.g. ventricular tachycardia was scored lower than ventricular fibrillation) and the persistence of the electrical abnormality (e.g. intermittent tachycardia was scored lower than persistent tachycardia). […] A similar trend is seen in response to overdrive pacing, although in this case the difference between the treatment and controls are not significant at p=0.05. The “All control” group represents pooled reverse and vehicle control counts.

cryoinjured mouse hearts [3] = conditions: formulation applied coincident with cryo-infarction; 1 week following the injury; O'Quinn et al., Circulation, 2008; cited from earlier work
[4] = tested on: HeLa cells expressing wt Cx43; assay: Scrape loading assay of GJ intercellular communication (GJIC); assay type: cell-based; conditions: relative to control and parental non-connexin expressing cells, p<0.05
Text: It has been previously shown that inhibition of ZO-1 interaction with Cx43 increases GJ size in HeLa Cx43 and increases the proportion of Triton-insoluble-Cx43 in GJs, without altering Cx43 expression levels or turnover (Hunter et al., 2005). Based on this and other data, it was proposed that ZO-1 inhibits the transition from non-junctional and gap junctional Cx43 (Hunter et al. 2005). The question of where ZO-1 exerted this control to this point is unknown. Here, it is disclosed that ZO-1 regulates movement of connexons in the plasma membrane into GJs. FIG. 1 outlines how this works. The model disclosed herein predicts that inhibiting Cx43/ZO-1 interaction will result in an increase in GJ intercellular communication (GJIC) and a complementary decrease of free-membrane connexons. The well-characterized “scrape loading” technique was used to assess GJIC in HeLa cells expressing wt Cx43.

NVRM / NCRF aggregates = assay: Mixed aggregate culture of CellTracker-tagged fibroblasts and myocytes; assay type: cell-based, rat; conditions: relative to control aggregates
Description: as §1, §2

[5] = tested on: Cx43 hemichannel in HeLa Cx43 cells; assay: Connexon channel (hemichannel) function by EtdBr uptake in live cells; assay type: cell-based
Description: Functional and biochemical assays were used to assess whether the predicted reduction in free-membrane connexons occurs. First, connexon channel (hemichannel) function was assayed using EtdBr uptake in live cells as described by Saez and co-workers. […] In a variant of this experiment, the cells were also cultured at low density such that no GJs could form. Again consistent with the model, in the absence of GJs for free connexons in the membrane to be recruited to, ACT1 had no affect (FIG. 2).

[6] = S2-S3 premature beat protocol, methycellulose patch ~9 ug peptide at cryoinjury, hearts tested a week later
[7] = overdrive pacing, methycellulose patch ~9 ug peptide at cryoinjury, hearts tested a week later

With “ACT1: Cx43 CT sequence RPRPDDLEI (SEQ ID NO:1), can be attached to antennapedia sequence: RQPKIWFPNRRKPWKK RPRPDDLEI (SEQ ID NO3) (optionally antennapedia sequence; UniProt P17302 374-382, looked up, fragment)” the “adherence of NCRFs to NVRM monolayers” value [1] was “decreased the adherence”, the “adherence of NCRFs to NVRM monolayers” value ([1]; listed as ACT1ACT1) was “reduction in fibroblast (NCRF) adhesion” and the “S2-S3 Protocol Arrhythmic (numbers of mice displaying an arrhythmia response)” value (cryoinjured mouse hearts [2]; [6]) was 1. For the same substance, the “S2-S3 Protocol Stable (numbers of mice)” value (cryoinjured mouse hearts [2]; [6]) was 6, the “Overdrive Pacing Arrhythmia (numbers of mice displaying an arrhythmia response)” value (cryoinjured mouse hearts [2]; [7]) was 2 and the “Overdrive Pacing Stable (numbers of mice)” value (cryoinjured mouse hearts [2]; [7]) was 5. For the same substance, the “Arrhythmia Severity Index Mean” value (cryoinjured mouse hearts [2]; severity graded by electrical abnormality and its persistence, patch ~9 ug peptide, a week after cryoinjury) was 1.71, the “electrical stability in response to the S2-S3 arrhythmia induction protocol” value (cryoinjured mouse hearts [2]; vs controls, chi squares p=0.05 or below) was “improved electrical stability” and the “arrhythmia susceptibility of heart after cryo-infarction to the ventricle” value (cryoinjured mouse hearts [3]) was “renders the heart refractory to arrhythmia-inducing electrophysiological protocols”. For the same substance, the “GJ intercellular communication (GJIC)” value [4] was “significantly increased GJIC”, the “exclusion/loss of NCRFs from aggregates” value (NVRM / NCRF aggregates) was “increased exclusion/loss of NCRFs” and the “segregation of myocytes and fibroblasts in aggregates / cohesion index (% co-localization orange and green) of NVRMs” value (NVRM / NCRF aggregates) was “tend to segregate into cohesive domains of like cells”. The “exclusion/loss of NCRFs from aggregates” value (NVRM / NCRF aggregates; listed as ACT1ACT1) was “Fibroblasts are excluded more”, the “segregation of myocytes and fibroblasts in aggregates / cohesion index (% co-localization orange and green) of NVRMs” value (NVRM / NCRF aggregates; listed as ACT1ACT1) was “is higher” and the “hemichannel activity (EtdBr uptake), cells at low density” value ([5]; cells cultured at low density such that no GJs could form) was “no affect”. The “hemichannel activity (EtdBr uptake)” value ([5]; contacting HeLa Cx43 cells, relative to controls and non-connexin expressing HeLa cells, p<0.05) was “significantly decreases EtdBr uptake; also recorded: decreased hemichannel activity”.
